Where two headings read alike, the source gives them in different places.

From patent publication US20240050402A1, “ANETHOLE TRITHIONE ADMINISTRATION REGIMEN FOR THE PREVENTION OR TREATMENT OF ISCHEMIA-REPERFUSION INJURIES” (priority 2020, published 2024) come the findings set out here.

Series [1] has as its system myocardial ischemic-reperfusion, LAD coronary artery occlusion. As to the kind of experiment: In vivo ischemia-reperfusion model in sheep (balloon catheter LAD occlusion). Conditions: ST-segment elevation, troponin Ic, CPK, infarct size, ejection fraction; level when occluding balloon deflated. Here is the method:
(§1) Here, we investigated the effect of AOL in an in vivo ischemic-reperfusion model in sheep, by administering AOL prior to reperfusion to assess the cardioprotective potential of AOL. Several parameters were evaluated: • the infarct size, determined at the end of the experiment (day 3), and assessed by two independent pathologists; • the plasmatic exposure, evaluated by dosing plasma samples collected at regular intervals after administration of AOL by mass spectrometry; • ECG parameters; and • heart contractility, assessed through the measurement of the ejection fraction.
The efficacy of AOL was evaluated by comparing these parameters in vehicle- and AOL-treated groups using the sheep model.
Sheep underwent a myocardial ischemic-reperfusion, while either receiving AOL or the vehicle as a control. The animals underwent a three-day follow-up period and were euthanized on day 3.
Myocardial ischemic followed by reperfusion was induced by using the balloon catheter procedure, which consists in occluding the distal left anterior descending (LAD) coronary artery by inflating/deflating a balloon. This particular procedure allowed to have infarction sizes highly reproducible and to occlude only temporally the coronary artery.
AOL or vehicle were administered as a bolus intravenous (IV) injection 10 minutes prior to reperfusion. […]

Series [2] is described as follows: Clinical pharmacokinetics study in healthy volunteers, IV bolus + 1-step infusion. Conditions: for Cmax / concentration at 12 hours: both sexes, human, plasma; for Cmax: intravenous, read-out: AOL plasma concentration Cmax; for concentration at 12 hours: iv, read-out: AOL plasma concentration End of 12-hour infusion (IV). The class given is in vivo, human. As for the experimental part: The concentration of AOL in the subject's plasma can be measured by means and methods well known to the skilled artisan, such as liquid chromatography-mass spectrometry (LC/MS) or any other suitable means or method. For example, a blood sample from the subject can be centrifuged—preferably within 30 minutes after blood sampling—at about 1 500 g for 10 minutes at 2-8° C. to obtain plasma—the skilled artisan is familiar with method of obtaining plasma from a blood sample, and can readily adapt the centrifugal force, time, temperature and any other parameter according to their routine practice. Immediately after centrifugation, the plasma sample can be analyzed to assess the concentration of AOL by liquid chromatography-mass spectrometry (LC/MS).
A single site, randomized, placebo-controlled, open-label and single blind, ascending dose, cross-over study primarily aiming at evaluating the pharmacokinetics, safety and tolerability of AOL administered intravenously in healthy volunteers versus a marketed formulation of AOL (Sulfarlem 525 ®) administered orally was carried out at QPS Netherlands B.V. (Groningen, The Netherlands). Twelve healthy male and female subjects aged between 18 and 65 years old were included in this study.
During this clinical pharmacokinetics study, several dosage regimens have been tested to assess the safety of AOL and to better characterized its pharmacokinetics profile, when administered by IV route (Table 2).

Series [3] can be described thus: Two-step infusion after bolus, AOL plasma concentration in human. The class given is in vivo. Particulars: 2-step infusion 6 then 3 μg/kg/h (3 h + 9 h), lower and higher bolus doses. Here is the method:
In that respect, the management of the immediate post-initiation period has been evaluated using a 2-step infusion approach, i.e., starting with a higher dose (6 jig/kg/h) in the first 3 hours of infusion, and then stepping down to a lower dose (3 jig/kg/h) for the remaining time (in this example, 9 hours, for a total infusion period of 12 hours).
The same 2-step infusion regimen was tested with 2 different bolus doses.

Series [4] has as its system myocardial ischemia-reperfusion, left coronary artery occlusion. As to the kind of experiment: In vivo ischemia-reperfusion model in rat (30 min left coronary artery occlusion, 3 h reperfusion). Conditions: for reduction of the size of the myocardial infarction / reduction of the size of the no-reflow zone: versus control; for Area of necrosis/Area at risk (%) / Area of no-reflow/Area at risk (%): mean±SEM. Here is the method:
64 female Sprague Dawley rats (— 6 months old) were anesthetized with intraperitoneal ketamine (90 mg/kg) and xylazine (10 mg/kg). Only female rats were used in this study as it was previously reported that gender had no effect on the extent of myocardial injury in the setting of experimental myocardial infarction in rats (Li & Kloner, 1995. J Thromb Thrombolysis. 2(3):221-225); and that lethal reperfusion-induced arrhythmias led to a higher mortality in male rats versus female rats (Dow et al., 2015. Springerplus. 4:96).
The animals were intubated and mechanically ventilated with room air at respiratory rate of 60 cycles/minute and tidal volume of 1 mL per 100 g body weight (Harvard Apparatus Rodent Ventilator, Model 683, South Natick, Mass). A water circulating heating pad was used to keep the rat body temperature at around 37° C. Their neck surgical area was shaved and cleaned, and catheters were inserted into the jugular vein (for drug delivery) and carotid artery (for arterial waveform monitoring) via cut downs. Under clean conditions, the chest cavity was opened through an incision in the left 4th intercostal space to expose the heart. The pericardium was gently removed to expose the anterior surface of the left ventricle. A 4-0 silk suture was placed under the proximal portion of the left coronary artery as it runs through the interventricular groove just under the tip of the left atrial appendage. The end of the suture was threaded through a small plastic tube to make a snare for coronary artery occlusion. At the time of occlusion, the artery was pulled through the plastic tube and the tube was clamped. Coronary artery reperfusion occurred by releasing the clamp and watching the surface of the heart for reactive hyperemia. The left coronary artery was occluded for 30 minutes followed by 3 hours of reperfusion.
Rats were randomized into one of the 3 groups: • preventive group (n=22): AOL infusion starting 5 minutes before coronary artery occlusion; • curative group (n=20): AOL infusion starting 5 minutes prior to reperfusion; • control group (n=22): vehicle infusion starting 5 minutes before coronary artery occlusion.
The investigators were blinded to the animal randomization. Infusions in all groups were continuous throughout the end of the study (h+3 after reperfusion). In treated rats, the dose of AOL was 0.2 mg/kg/hour delivered in saline at a rate of infusion of 2 mL/kg/hour.
By the end of the 3-hour reperfusion, a solution of thioflavin S was injected into the jugular vein during the last one minute of reperfusion to assess the distribution of the no-reflow phenomenon (also known as “zone of microvascular obstruction”). Thioflavin S is a dye that appears fluorescent in areas receiving perfusion, when heart slices are visualized under UV light; while the no-reflow area, that lacks perfusion, appears dark (non-fluorescent). At the end of the period of reperfusion after thioflavin S injection, the proximal coronary artery was briefly re-occluded and blue dye (Super imperse blue) was injected into the jugular vein.
At the end of this step, the animal was euthanized under deep anesthesia with ketamine/xylazine by intravascular injection of KCl (149 mg/mL) at 0.5 mL/250 g body weight in order to stop the heart in a relative diastolic or relaxed state. The heart was excised and was gently washed in clear saline, and then transected into 4 transverse slices from apex to base.
The heart slices were photographed under white light in order to delineate the ischemic risk zone (pink) versus the non-ischemic regions (blue) that received the blue dye. The heart slices were then photographed under UV light in order to delineate the areas of perfusion by thioflavin S (fluorescent areas) versus the no-reflow zones (non-fluorescent).
Finally, hearts were incubated in 1% of triphenyl tetrazolium chloride (TTC), a chemical that stains viable cells brick red, while dead or necrotic cells appear white. […]

The nature of series [5]: Plasma exposure of AOL metabolite in sheep after bolus/infusion. The class given is in vivo. Particulars: limit of quantification. Here is the method:
as §1
AOL or vehicle were administered as a bolus intravenous (IV) injection 10 minutes prior to reperfusion. This bolus injection was expected to ensure an effective AOL plasma exposure on reperfusion and was immediately followed by a continuous IV infusion starting at the beginning of the reperfusion, for a total duration of administration (bolus+infusion) of 130 minutes.
This starkly contrasted with the metabolization profile that we had observed in sheep (Example 2), where AOX remained below the limit of quantification (0.5 ng/mL) after bolus/infusion, despite similar or even higher doses (FIGS. 9B & 9C).

[6] abbreviates: bolus 0.3 μg/kg, infusion 0.4 μg/kg/hr for 12 hours.
Where [7] appears, read: bolus 0.9 μg/kg, infusion 1.7 μg/kg/hr for 12 hours.
Setting [8] is: bolus 1.8 μg/kg, infusion 3 μg/kg/hr for 12 hours.
Setting [9] is: bolus 4 μg/kg, infusion 6 μg/kg/hr for 12 hours.
The mark [10] stands for this setting: curative (shortly before reperfusion).
Where [11] appears, read: curative group: AOL 0.2 mg/kg/hour infusion starting 5 minutes prior to reperfusion.
The mark [12] stands for this setting: preventive (prior to coronary artery occlusion).
[13] abbreviates: preventive group: AOL 0.2 mg/kg/hour infusion starting 5 minutes before coronary artery occlusion.

In the case of `COc1ccc(-c2cc(=S)ss2)cc1` [AOL, 5-(4-methoxyphenyl)dithiole-3-thione], the “AOL plasma level at reperfusion at which positive impact compared to vehicle was observed” value in series [1] was > 1 ng per mL of plasma. Besides, the “slope of linear regression, plasma concentration at Cmax (Y) versus bolus dose (X)” value in series [2] (Y=slope×X, FIG. 8A) came to 1.046. In addition, the “slope of linear regression, plasma concentration at end of infusion (Y) versus infusion dose (X)” value in series [2] (Y=slope×X, FIG. 8B) is 0.5723. Besides, the “time at which steady state was reached” value in series [2] (all dosage regimens tested) was “around 3 hours”. For the same compound, the “AOL plasma concentration Valley” value is reported as approximately 0.08 ng/mL in series [2] (setting [6]), approximately 0.37 ng/mL in series [2] (setting [7]), approximately 0.72 ng/mL in series [2] (setting [8]) and approximately 2.67 ng/mL in series [2] (setting [9]). In addition, the Cmax in series [2] (setting [6]) was found to be 0.29 ng/mL; in series [2] (setting [7]), 1.04 ng/mL; in series [2] (setting [8]) it was 1.94 ng/mL; in series [2] (setting [9]) it was 4.14 ng/mL. For the same compound, the concentration at 12 hours was approximately 0.1 ng/mL in series [2] (setting [6]), approximately 0.8 ng/mL in series [2] (setting [7]), approximately 1.7 ng/mL in series [2] (setting [8]) and approximately 3.5 ng/mL in series [2] (setting [9]). Also, the “metabolization of AOL into AOX” value in series [2] (human subjects, FIG. 9A) is on record as “rapidly metabolized into AOX”. The “trough of AOL plasma concentration after the bolus” value in series [3] is recorded as “abolished the trough”. Also, the “effect on hemodynamics (heart rate, arterial blood pressure)” value in series [4] (baseline, end of occlusion, end of 3 hours reperfusion) was “without effect on hemodynamics”. The entries for the “reduction of the size of the myocardial infarction” value in series [4] (setting [10]) and in series [4] (setting [12]) were 11% and 22%, respectively. Moreover, the “reduction of the size of the no-reflow zone” value was 23% in series [4] (setting [10]) and 26% in series [4] (setting [12]). Besides, the “Area of necrosis/Area at risk (%)” value was 50.8 ± 3.9^ % in series [4] (setting [11]) and 44.5 ± 2.9^& % in series [4] (setting [13]). The “Area of no-reflow/Area at risk (%)” value is 30.1 ± 2.3 % in series [4] (setting [11]) and 28.8 ± 2.4 % in series [4] (setting [13]).

As to `Oc1ccc(-c2cc(=S)ss2)cc1` [AOX, desmethylanethole trithione], the “appearance of AOX in plasma after start of AOL administration” value in series [2] (human subjects, FIG. 9A) is given as “quickly appeared in the plasma”. Besides, in series [5], the AOX plasma concentration is less than 0.5 ng/mL.
